From patent publication US20250090507A1, “Methods of Treating Cancer With a B-RAF Inhibitor” (MapKure, LLC, priority 2022, published 2025)
Entries after “also recorded” stand apart in the source; their conditions may differ. Like-named read-outs stand apart in the source and are kept apart here.

Experiments:
[1] = Permeability; type: in vitro ADME
[2] = tested on: tumor cell lines harboring non-V600 B-RAF mutations; assay: Preclinical inhibition of tumor cell lines; type: cell-based; conditions: preclinical studies
[3] = pH value of the solid form; type: physicochemical; conditions: Form I
[4] = tested on: B-RAF/MEK inhibitor-resistant tumors; assay: Preclinical activity towards resistant tumors; conditions: preclinical studies
[5] = tested on: circulating tumor DNA; assay: Circulating tumor DNA variant allele frequency in melanoma pts; type: in vivo, human; conditions: ctDNA, subset of melanoma pts
Excerpt: Peripheral blood samples were collected at specified timepoints as described in the schedule of assessments to be used for the longitudinal evaluation ctDNA by molecular (NGS) methodologies as pharmacodynamic biomarkers associated with response or resistance.

[6] = Phase 1 study (NCT04249843): plasma pharmacokinetics of Compound A; type: in vivo, human; conditions: for Racc: accumulation ratio based on AUC8h; for Cmax / AUC(0-t) / Tmax: human, plasma, oral
Procedure: For a single-dose profile: AUC from zero to the last measurable concentration (AUClast), AUC from zero to infinity (AUC0-∞), maximum observed plasma concentration (Cmax), time to maximum observed plasma concentration (tmax), t1/2, apparent clearance, and apparent volume of distribution (Vz/F). In addition, AUClast,ss, AUCtau, Cmax,ss, and tmax, ss were calculated at steady state.
Pharmacokinetic assay: plasma samples were assayed for Compound A (or possible major metabolites) concentration with use of a validated chromatography method.
Pharmacokinetic data were analyzed using the PK Population. Compound A PK variables (i.e., AUClast, AUC0-∞, Cmax, Tmax, t1/2, apparent clearance and Vz/F) were calculated after single dosing in Phase 1a. In addition, AUClast, ss, AUCtau, Cmax,ss, and tmax,ss were calculated in Phase 1b. The PK parameters were calculated as appropriate using noncompartmental methods and summary statistics were provided. Compound A (or possible major metabolites) plasma concentration data and PK parameters were tabulated and summarized for Day 1 of Cycle 1, Day 1 of Cycle 2 and at steady state (Phase 1b). Descriptive statistics included means, medians, minimums, maximums, standard deviation, coefficient of variation (CV), geometric mean, and geometric CV as appropriate. Mean plasma concentrations were also plotted against time for each dose level. Additional PK analyses may be conducted as appropriate.
Tumor response: • 1 patient evaluable, 201-011: SD week 8. • Preliminary PK parameters and data are listed in Table 6. • Parameters listed as Mean (% CV) • Tmax reported as median (min, max) • Accumulation ratio Racc based on AUC8h • Patient 101-007 was excluded from C2D1 of cohort 2 (10 mg) due to dose reduction. • Patient 101-011 was excluded from summary statistics of CID1 of cohort 6 (60 mg) due to […] samples. • Patient 201-011 C2D1 parameters excluded from summary statistics of C2D1 of cohort 6 due to extended dose interruption.

[7] = tested on: RAF family of serine/threonine kinases; assay: Preclinical RAF kinase inhibition; type: biochemical
[8] = 40 mg, 40 mg QD, C2D1, patient 202-012

In the case of O=C1CCc2c(Oc3ccc4c(c3)[C@H]3[C@H](NC(=O)Nc5cc(F)c(F)cc5F)[C@H]3O4)ccnc2N1 [Compound A, 1-((1S,1aS,6bS)-5-((7-oxo-5,6,7,8-tetrahydro-1,8-naphthyridin-4-yl)oxy)-1a,6b-dihydro-1H-cyclopropa[b]benzofuran-1-yl)-3-(2,4,5-trifluorophenyl)urea], the Permeability ([1]; class in words) is reported as “High”, the Papp ([1]; not told) is reported as over 10 ×10⁻⁶ cm/s and the “Inhibition of tumor cell lines” value [2] is reported as “inhibited”. For the same compound, the pH value [3] was 5.76, the “Activity towards resistant tumors” value [4] was “active” and the “maximum reduction of VAF, range” value [5] was 98.7-99.9%. The “maximum reduction of variant allele frequency (VAF) of detected mutations” value ([5]; across evaluated subjects) was 99.3%, the Racc ([6]; 5 mg QD, Mean (%CV)) was 17 (117%) and the Racc ([6]; 10 mg QD, Mean (%CV)) was 6 (49%). For the same compound, the Racc ([6]; 15 mg QD, Mean (%CV)) was 7 (60%), the Racc ([6]; 25 mg QD, Mean (%CV)) was 4 (23%) and the Racc ([6]; 40 mg QD, Mean (%CV)) was 4 (23.5%). It also gave a Racc ([6]; 40 mg QD, patient 101-010) of 4.05, a Racc ([6]; 40 mg QD, patient 102-012) of 4.06 and a Racc ([6]; 40 mg QD, patient 201-010) of 5.43. It also gave a Racc ([6]; 40 mg QD, patient 202-012) of 3.06, a Racc ([6]; 60 mg QD, patient 101-011) of 6.7 and a Racc ([6]; 60 mg QD, patient 201-011) of 5.7. For the same compound, the “Dose proportionality of exposure” value ([6]; 5-60 mg QD, preliminary PK) was “generally increased dose-proportionally; also recorded: generally dose-proportional”, the “Exposure across cohorts versus dose” value ([6]; cohorts up to 40 mg QD) was “generally proportional to the increase in the dose” and the Cmax ([6]; 5 mg, 5 mg QD, C2D1, Mean (%CV)) was 451 ng/mL. It also gave an AUC(0-t) ([6]; 5 mg, 5 mg QD, C2D1, Mean (%CV), read-out: AUC8 h) of 2660 ng·h/mL, a Cmax ([6]; 5 mg, C1D1, Mean (%CV)) of 105 ng/mL and an AUC(0-t) ([6]; 5 mg, C1D1, Mean (%CV), read-out: AUC8 h) of 414 ng·h/mL. The AUC(0-t) ([6]; 5 mg, C1D1, Mean (%CV), read-out: AUC24 h) was 1380 ng·h/mL, the Cmax ([6]; 10 mg, 10 mg QD, C2D1, Mean (%CV), patient 101-007 excluded) was 973 ng/mL and the AUC(0-t) ([6]; 10 mg, 10 mg QD, C2D1, Mean (%CV), patient 101-007 excluded, read-out: AUC8 h) was 5720 ng·h/mL. It also gave a Cmax ([6]; 10 mg, C1D1, Mean (%CV)) of 197 ng/mL, an AUC(0-t) ([6]; 10 mg, C1D1, Mean (%CV), read-out: AUC8 h) of 1060 ng·h/mL and an AUC(0-t) ([6]; 10 mg, C1D1, Mean (%CV), read-out: AUC24 h) of 3140 ng·h/mL. For the same compound, the Cmax ([6]; 15 mg, 15 mg QD, C2D1, Mean (%CV)) was 1660 ng/mL, the AUC(0-t) ([6]; 15 mg, 15 mg QD, C2D1, Mean (%CV), read-out: AUC8 h) was 9930 ng·h/mL and the Cmax ([6]; 15 mg, C1D1, Mean (%CV)) was 274 ng/mL. It also gave an AUC(0-t) ([6]; 15 mg, C1D1, Mean (%CV), read-out: AUC8 h) of 1530 ng·h/mL, an AUC(0-t) ([6]; 15 mg, C1D1, Mean (%CV), read-out: AUC24 h) of 4780 ng·h/mL and a Cmax ([6]; 25 mg, 25 mg QD, C2D1, Mean (%CV)) of 2110 ng/mL. The AUC(0-t) ([6]; 25 mg, 25 mg QD, C2D1, Mean (%CV), read-out: AUC8 h) was 12300 ng·h/mL, the Cmax ([6]; 25 mg, C1D1, Mean (%CV)) was 593 ng/mL and the AUC(0-t) ([6]; 25 mg, C1D1, Mean (%CV), read-out: AUC8 h) was 3090 ng·h/mL. For the same compound, the AUC(0-t) ([6]; 25 mg, C1D1, Mean (%CV), read-out: AUC24 h) was 9170 ng·h/mL, the Cmax ([6]; 40 mg, 40 mg QD, C2D1, Mean (%CV)) was 2970 ng/mL and the AUC(0-t) ([6]; 40 mg, 40 mg QD, C2D1, Mean (%CV), read-out: AUC8 h) was 15700 ng·h/mL. For the same compound, the Cmax ([6]; 40 mg, 40 mg QD, C2D1, patient 101-010) was 3600 ng/mL, the AUC(0-t) ([6]; 40 mg, 40 mg QD, C2D1, patient 101-010, read-out: AUC8 h) was 15600 ng·h/mL and the Cmax ([6]; 40 mg, 40 mg QD, C2D1, patient 102-012) was 3550 ng/mL. The AUC(0-t) ([6]; 40 mg, 40 mg QD, C2D1, patient 102-012, read-out: AUC8 h) was 18300 ng·h/mL, the Cmax ([6]; 40 mg, 40 mg QD, C2D1, patient 201-010) was 2410 ng/mL and the AUC(0-t) ([6]; 40 mg, 40 mg QD, C2D1, patient 201-010, read-out: AUC8 h) was 13400 ng·h/mL. The Cmax [6, 8] was 2300 ng/mL, the Tmax [6, 8] was 3 h and the AUC(0-t) ([6]; 40 mg, 40 mg QD, C2D1, patient 202-012, read-out: AUC8 h) was 15400 ng·h/mL. For the same compound, the Cmax ([6]; 40 mg, C1D1, Mean (%CV)) was 698 ng/mL, the AUC(0-t) ([6]; 40 mg, C1D1, Mean (%CV), read-out: AUC8 h) was 3960 ng·h/mL and the AUC(0-t) ([6]; 40 mg, C1D1, Mean (%CV), read-out: AUC24 h) was 12100 ng·h/mL. The Cmax ([6]; 40 mg, C1D1, patient 101-010) was 692 ng/mL, the AUC(0-t) ([6]; 40 mg, C1D1, patient 101-010, read-out: AUC8 h) was 3850 ng·h/mL and the AUC(0-t) ([6]; 40 mg, C1D1, patient 101-010, read-out: AUC24 h) was 12000 ng·h/mL. The Cmax ([6]; 40 mg, C1D1, patient 102-012) was 789 ng/mL, the AUC(0-t) ([6]; 40 mg, C1D1, patient 102-012, read-out: AUC8 h) was 4510 ng·h/mL and the AUC(0-t) ([6]; 40 mg, C1D1, patient 102-012, read-out: AUC24 h) was 12300 ng·h/mL. The Cmax ([6]; 40 mg, C1D1, patient 201-010) was 415 ng/mL, the AUC(0-t) ([6]; 40 mg, C1D1, patient 201-010, read-out: AUC8 h) was 2470 ng·h/mL and the AUC(0-t) ([6]; 40 mg, C1D1, patient 201-010, read-out: AUC24 h) was 8460 ng·h/mL. The Cmax ([6]; 40 mg, C1D1, patient 202-012) was 896 ng/mL, the AUC(0-t) ([6]; 40 mg, C1D1, patient 202-012, read-out: AUC8 h) was 5040 ng·h/mL and the Cmax ([6]; 60 mg, 60 mg QD, C2D1, Mean row, patient 201-011 excluded) was 5330 ng/mL. For the same compound, the AUC(0-t) ([6]; 60 mg, 60 mg QD, C2D1, Mean row, patient 201-011 excluded, read-out: AUC8 h) was 37500 ng·h/mL, the Cmax ([6]; 60 mg, 60 mg QD, C2D1, patient 201-011 (excluded from C2D1 summary, extended dose interruption)) was 5230 ng/mL and the AUC(0-t) ([6]; 60 mg, 60 mg QD, C2D1, patient 201-011 (excluded from C2D1 summary, extended dose interruption), read-out: AUC8 h) was 31300 ng·h/mL. The Cmax ([6]; 60 mg, C1D1, Mean (%CV), patient 101-011 excluded) was 881 ng/mL, the AUC(0-t) ([6]; 60 mg, C1D1, Mean (%CV), patient 101-011 excluded, read-out: AUC8 h) was 4930 ng·h/mL and the AUC(0-t) ([6]; 60 mg, C1D1, Mean (%CV), patient 101-011 excluded, read-out: AUC24 h) was 15400 ng·h/mL. It also gave a Cmax ([6]; 60 mg, C1D1, patient 101-011 (excluded from C1D1 summary statistics, AQL samples)) of 878 ng/mL, an AUC(0-t) ([6]; 60 mg, C1D1, patient 101-011 (excluded from C1D1 summary statistics, AQL samples), read-out: AUC8 h) of 5630 ng·h/mL and an AUC(0-t) ([6]; 60 mg, C1D1, patient 101-011 (excluded from C1D1 summary statistics, AQL samples), read-out: AUC24 h) of 18900 ng·h/mL. For the same compound, the Cmax ([6]; 60 mg, C1D1, patient 201-011) was 957 ng/mL, the AUC(0-t) ([6]; 60 mg, C1D1, patient 201-011, read-out: AUC8 h) was 5510 ng·h/mL and the AUC(0-t) ([6]; 60 mg, C1D1, patient 201-011, read-out: AUC24 h) was 17600 ng·h/mL. For the same compound, the Cmax ([6]; 60 mg, C1D1, patient 202-014) was 804 ng/mL, the AUC(0-t) ([6]; 60 mg, C1D1, patient 202-014, read-out: AUC8 h) was 4340 ng·h/mL and the AUC(0-t) ([6]; 60 mg, C1D1, patient 202-014, read-out: AUC24 h) was 13100 ng·h/mL. The Tmax ([6]; 5 mg QD, C2D1, median (min, max)) was 1 h, the Tmax ([6]; 40 mg QD, C2D1, median (min, max)) was 1.5 h and the Tmax ([6]; 60 mg QD, C2D1, patient 201-011 (excluded from C2D1 summary, extended dose interruption)) was 2 h. For the same compound, the Tmax ([6]; 5-60 mg QD, preliminary PK, overall) was about 2 h, the “average accumulation in exposure at steady-state” value ([6]; preliminary PK) was 7.4 fold and the terminal half-life ([6]; preliminary PK) was “long”. For the same compound, the “Potency against RAF monomer & dimer” value ([7]; monomer versus dimer) was “equal potency” and the “Inhibitory activity against RAF kinases” value ([7]; preclinical) was “potent inhibitory activity; also recorded: highly potent”.
